We go through eleven compounds from US7863446B2, “Heterocycles” (Orchid Research Laboratories Limited, priority 2006, dated 2011).

One data set deals with T1, COX-2 (Homo sapiens, UniProt P35354).
T1 construct: Fresh blood was collected in tubes containing sodium heparin by vein puncture from healthy male volunteers; endogenous in cells; host or cells: human whole blood from healthy male volunteers, stimulated with LPS
T1 sequence (P35354 18-604): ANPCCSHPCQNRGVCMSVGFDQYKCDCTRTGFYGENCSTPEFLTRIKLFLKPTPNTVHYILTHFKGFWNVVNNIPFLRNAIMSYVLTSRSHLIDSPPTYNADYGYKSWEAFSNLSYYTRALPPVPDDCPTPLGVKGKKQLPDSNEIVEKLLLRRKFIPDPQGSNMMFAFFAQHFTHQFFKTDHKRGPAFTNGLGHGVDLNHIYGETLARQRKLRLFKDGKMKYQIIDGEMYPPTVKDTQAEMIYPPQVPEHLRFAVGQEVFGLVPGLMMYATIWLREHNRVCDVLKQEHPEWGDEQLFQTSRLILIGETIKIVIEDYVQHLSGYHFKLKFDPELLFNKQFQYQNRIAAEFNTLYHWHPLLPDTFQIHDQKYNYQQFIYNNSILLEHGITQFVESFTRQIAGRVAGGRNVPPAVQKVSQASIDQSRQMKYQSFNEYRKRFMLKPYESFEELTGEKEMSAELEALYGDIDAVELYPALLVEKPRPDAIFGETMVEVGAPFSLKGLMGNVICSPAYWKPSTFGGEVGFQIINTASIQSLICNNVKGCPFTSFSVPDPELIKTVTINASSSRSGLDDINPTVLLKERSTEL
The experiment in a line: Human whole blood assay (PGE-2 inhibition, COX-2). The data set is classed as cell-based. The note with it: LPS stimulated human whole blood, NA = No activity, read-out: % PGE-2 Inhibition in hWBA. As for the experimental part:
In Vitro Evaluation of Cyclooxygenase-2 (Cox-2) Inhibition Activity
The COX-2 inhibition activities of the compounds illustrated in the examples were determined by the following method.
Human whole blood provides a protein and cell rich milieu appropriate for the study of the biochemical efficacy of anti-inflammatory compounds such as selective COX-2 inhibitors. […] This correlates with the observation that COX-2 inhibitors have no effect on prostaglandin E2 (PGE2) production in normal blood. These inhibitors were active only after incubation of human blood with lipopolysaccharide (LPS), which induces COX-2 production in the blood.
Fresh blood was collected in tubes containing sodium heparin by vein puncture from healthy male volunteers. The subjects should have no apparent inflammatory conditions and should have not taken NSAIDs for at least 7 days prior to blood collection. Blood was preincubated with aspirin in vitro (12 μg/ml, at time zero) to inactivate COX-1 for 6 hours. Then test compounds (at various concentrations) or vehicle were added to blood, the blood was stimulated with LPS B:4 (10 μg/ml) and incubated for another 18 hours at 37° C. water bath. After which the blood was centrifuged, plasma was separated and stored at −80° C. (J. Pharmacol. Exp. Ther, 271, 1705, 1994; Proc. Natl. Acad. Sci. USA, 96, 7563, 1999). The plasma was assayed for PGE2 using Cayman ELISA kit as per the procedure outlined by the manufacturer (Cayman Chemicals, Ann Arbor, USA).

Another data set deals with HCT-116. The experiment in a line: Anti-cancer screen (MTT), HCT-116. It is filed as cell-based. The note with it: Homo sapiens, HCT-116, 48 hours. On the procedure: (§1) Experimental drugs are screened for anti-cancer activity in three cell lines for their GI50, TG1 and LC50 values (using 5 concentrations for each compound). The cell lines are maintained in DMEM containing 10% fetal bovine serum. 96 well microtiter plates are inoculated with cells in […] for 24 hours at 37° C., 5% CO2, 95% air and 100% relative humidity. 5000 HCT116 cells/well, 5000 NCIH460 cells/well, 10000 U251 cells/well and 5000 MDAMB231 cells/well are plated. A separate plate with these cell lines is also inoculated to determine cell viability before the addition of the compounds (T0).
(§2) Addition of Experimental Drugs
(§3) Following 24-hour incubation, experimental drugs are added to the 96 well plates. Each plate contains one of the above cell lines and the following in triplicate: 5 different concentrations (0.01, 0.1, 1, 10 and 100 μM) of 4 different compounds, appropriate dilutions of a cytotoxic standard and control (untreated) wells. Compounds are dissolved in dimethylsulfoxide (DMSO) to make 20 mM stock solutions, on the day of drug addition and frozen at −20° C. Serial dilutions of these 20 mM stock solutions are made in complete growth medium such that 100 μL of these drug solutions in medium, of final concentrations equaling 0.01, 0.1, 1, 10 and 100 μM can be added to the cells in triplicate. Standard drugs whose anti-cancer activity has been well documented and which are regularly used are doxorubicin and SAHA.
(§4) Cells are incubated with compounds for 48 hours followed by the addition of 10 μL 3-(4,5-Dimethyl-2-thiazolyl)-2,5-diphenyl-2H-tetrazolium (MTT) solution per well and a subsequent incubation at 37° C., 5% CO2, 95% air and 100% relative humidity, protected from light. After 4 hours, well contents are aspirated carefully followed by addition of 150 μL DMSO per well. Plates are agitated to ensure solution of the formazan crystals in DMSO and absorbance read at 570 nm.
(§5) Calculation of GI50, TGI and LC50
(§6) Percent growth is calculated for each compound's concentration relative to the control and zero measurement wells (T0; viability right before compound addition).
(§7) If a test well's O.D. value is greater than the T0 measurement for that cell line % Growth=(test−zero)/(control−zero)×100
(§8) If a test well's O.D. value is lower than the T0 measurement for that cell line, then % Growth=(test−zero)/zero×100 Plotting % growth versus experimental drug concentration, GI50 is the concentration required to decrease % growth by 50%; TGI is the concentration required to decrease % growth by 100% and LC50 is the concentration required to decrease % growth by 150%.

Another data set relates to NCI-H460. The experiment in a line: Anti-cancer screen (MTT), NCI-H460. Conditions: Homo sapiens, NCI-H460, 48 hours. It is filed as cell-based. As for the experimental part:
as §1, §2, §3, §4, §5, §6, §7, §8

Data set [1] deals with purified recombinant COX-1 (Homo sapiens, UniProt P23219). The data set can be described thus: COX-1 enzyme based assay. It is filed as biochemical. Conditions: NA = No activity, read-out: % Inhibition in rEnzyme Assay COX-1. On the procedure:
(§9) COX-1 and COX-2 Enzyme Based Assay
(§10) COX-1 and COX-2 enzyme based assays were carried out to check the inhibitory potential of the test compounds on the production of prostaglandin by purified recombinant COX-1/COX-2 enzyme (Proc. Nat. Acad. Sci. USA, 88, 2692-2696, 1991; J. Clin. Immunoassay 15, 116-120, 1992) In this assay, the potential of the test compound to inhibit the production of prostaglandin either by COX-1 or COX-2 from arachidonic acid (substrate) was measured. This was an enzyme based in-vitro assay to evaluate selective COX inhibition with good reproducibility.
(§11) Arachidonic acid was converted to PGH2 (Intermediate product) by COX1/COX-2 in the presence or absence of the test compound. The reaction was carried out at 37° C. and after 2 minutes it was stopped by adding 1M HCl. Intermediate product PGH2 was converted to a stable prostanoid product PGF2αby SnCl2 reduction. The amount of PGF2α, produced in the reaction was inversely proportional to the COX inhibitory potential of the test compound. The prostanoid product was quantified via enzyme immunoassay (EIA) using a broadly specific antibody that binds to all the major forms of prostaglandin, using Cayman ELISA kit as per the procedure outlined by the manufacturer (Cayman Chemicals, Ann Arbor, USA).

Data set [2] has as its target T2, purified recombinant COX-2 (Homo sapiens, UniProt P35354).
T2 sequence (P35354 18-604): T1 sequence (P35354 18-604)
The experiment in a line: COX-2 enzyme based assay. Conditions: NA = No activity, read-out: % Inhibition in rEnzyme Assay COX-2. The data set is classed as biochemical. On the procedure: as §9, §10, §11

Chain of purified recombinant COX-1 (P23219 24-599): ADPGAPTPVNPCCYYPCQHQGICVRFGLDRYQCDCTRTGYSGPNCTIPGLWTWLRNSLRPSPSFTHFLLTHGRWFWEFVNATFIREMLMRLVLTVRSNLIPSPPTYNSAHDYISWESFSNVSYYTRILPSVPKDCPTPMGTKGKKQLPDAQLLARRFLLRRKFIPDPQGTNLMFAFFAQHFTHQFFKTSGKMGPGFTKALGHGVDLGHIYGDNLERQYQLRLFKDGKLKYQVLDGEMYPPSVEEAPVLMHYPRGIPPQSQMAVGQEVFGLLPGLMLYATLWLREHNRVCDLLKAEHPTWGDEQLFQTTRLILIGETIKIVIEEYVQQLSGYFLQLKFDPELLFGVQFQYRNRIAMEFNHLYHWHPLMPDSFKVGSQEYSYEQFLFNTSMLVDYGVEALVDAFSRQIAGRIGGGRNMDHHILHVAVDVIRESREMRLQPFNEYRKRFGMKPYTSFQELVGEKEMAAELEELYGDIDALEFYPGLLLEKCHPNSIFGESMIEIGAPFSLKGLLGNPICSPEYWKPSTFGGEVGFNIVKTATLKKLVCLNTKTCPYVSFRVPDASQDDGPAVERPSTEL

`CS(=O)(=O)c1ccc(-c2nc(C(F)(F)F)nc(Cl)c2-c2ccc(S(=O)(=O)Cl)cc2)cc1` [Example 3, 4-{4-Chloro-6-[4-(methylsulfonyl)phenyl]-2-(trifluoromethyl)pyrimidin-5-yl}benzenesulfonyl chloride] registered a melting point of 207 to 210 °C.

As to `CC(=O)NS(=O)(=O)c1ccc(-c2c(Cl)nc(C(F)(F)F)nc2-c2ccc(S(C)(=O)=O)cc2)cc1` [Example 17, N-[(4-{4-Chloro-6-[4-(methylsulfonyl)phenyl]-2-(trifluoromethyl)pyrimidin-5-yl}phenyl)sulfonyl]acetamide], the melting point was 230 to 235 °C.

As for `Cc1ccc(S(=O)(=O)Oc2nc(C(F)(F)F)nc(-c3ccc(S(C)(=O)=O)cc3)c2-c2ccccc2)cc1` [Example 22, 6-[4-(Methylsulfonyl)phenyl]-5-phenyl-2-(trifluoromethyl)pyrimidin-4-yl-4-methylbenzenesulfonate], the inhibition at 0.25 µM at COX-2 (0.25 μM) is 15.6%. For the same compound, the inhibition at 1 µM on COX-2 (1 μM) came to 20.4%. For the same compound, at COX-2 (10 μM), the inhibition at 10 µM worked out at 36.4%.

With `NS(=O)(=O)c1ccc(-c2nc(C(F)(F)F)nc(N3CCN(C(=O)c4ccc([N+](=O)[O-])o4)CC3)c2-c2ccc(F)cc2)cc1` [Example 40, 4-{5-[4-Fluorophenyl]-4-[4-(5-nitro-2-furoyl)piperazin-1-yl]-2-(trifluoromethyl)pyrimidin-6-yl}benzenesulfonamide], the GI50 in the data set on HCT-116 was found to be 3.5 µM; in the data set with NCI-H460, 3.8 µM.

In the case of `NS(=O)(=O)c1ccc(-c2c(-c3ccc(F)cc3)nc(C(F)(F)F)nc2N2CCN(C(=O)c3ccc([N+](=O)[O-])o3)CC2)cc1` [Example 41, 4-{6-[4-Fluorophenyl]-4-[4-(5-nitro-2-furoyl)piperazin-1-yl]-2-(trifluoromethyl)pyrimidin-5-yl}benzenesulfonamide], the 50% growth inhibitory concentration (GI50) in the data set with HCT-116 was determined as 7 µM; in the data set on NCI-H460, 4 µM.

`O=C(c1ccc([N+](=O)[O-])o1)N1CCN(c2nc(C(F)(F)F)nc(-c3ccncc3)c2-c2ccc(F)cc2)CC1` [Example 44, 5-[4-Fluorophenyl]-4-[4-(5-nitro-2-furoyl)piperazin-1-yl]-6-pyridin-4-yl-2-(trifluoromethyl)pyrimidine]: the 50% growth inhibitory concentration (GI50) with HCT-116 stood at 26 µM; in the data set on NCI-H460, 4.5 µM.

With `FC(F)(F)c1nc(-c2ccccc2)c(-c2ccccc2)c(N2CCN(c3ccccn3)CC2)n1` [Example 48, 4,5-Diphenyl-6-(4-pyridin-2-yl-piperazin-1-yl)-2-(trifluoromethyl)pyrimidine], the melting point was 165 to 167 °C.

As to `NS(=O)(=O)c1cccc(-c2c(-c3ccccc3)nc(C(F)(F)F)nc2N2CCNCC2)c1` [Example 51, 3-[4-Phenyl-6-piperazin-1-yl-2-(trifluoromethyl)pyrimidin-5-yl]benzenesulfonamide], in data set [1], the inhibition at 1 µM was found to be 8.27%. The inhibition at 10 µM in data set [1] came to 7.1%; in data set [2], 12.3%. The GI50 in the data set on HCT-116 is 30 µM; in the data set with NCI-H460, 4 µM.

Consider `NS(=O)(=O)c1cccc(-c2c(-c3ccccc3)nc(C(F)(F)F)nc2N2CCN(c3ccccn3)CC2)c1` [Example 58], for which the figures for the inhibition at 1 µM in data set [1] and in data set [2] (1 μM) were 10.2% and 11.2%, respectively. Further, the inhibition at 10 µM amounted to 9.59% in data set [1] and 2.62% in data set [2].

`NS(=O)(=O)c1cccc(-c2c(-c3ccc(F)cc3)nc(C(F)(F)F)nc2N2CCN(c3cccc(C(F)(F)F)c3)CC2)c1` [Example 73, 5-(3-Aminosulfonylphenyl)-4-(4-fluorophenyl)-2-(trifluoromethyl)-6-{4-[3-(trifluoromethyl)phenyl]piperazin-1-yl}pyrimidine]: the 50% growth inhibitory concentration (GI50) was found to be 9.2 µM in the data set with HCT-116 and 9 µM in the data set on NCI-H460.

In the case of `CSc1nn(-c2nc(C(F)(F)F)nc(-c3ccncc3)c2-c2ccc(F)cc2)c(N)c1C(=O)Nc1ccc(C)c(C)c1` [Example 143, 5-Amino-N-(4,5-dimethylphenyl)-1-[5-(4-fluorophenyl)-6-pyridin-4-yl-2-(trifluoromethyl)pyrimidin-4-yl]-3-(methylthio)-1H-pyrazole-4-carboxamide], the 50% growth inhibitory concentration (GI50) in the data set on HCT-116 came to 20 µM; in the data set on NCI-H460 it was 0.1 µM.

One may read the melting point as the temperature, or range, at which the solid turns liquid. By inhibition is commonly meant the relative decrease from the control value, in per cent. As usually defined, the GI50 is the concentration giving 50% growth inhibition. Low readings indicate greater sensitivity of the cells, high ones lower sensitivity of the cells.
